Measured values taken from PubChem BioAssay (NCI).
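Values below derive from 48-hour exposures of cells grown in 96-well plates, with endpoints linearly interpolated between the two concentrations bracketing the appropriate inhibition level. GI50 = concentration required for 50% inhibition of growth. TGI marks complete inhibition of growth.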

Tests used:
Assay in all cases: NCI tumour cell line growth inhibition, 48 h
HOP-92 NSCLC = system: HOP-92 NSCLC
MDA-MB-435 = system: MDA-MB-435
SF-295 CNS = system: SF-295 CNS
SK-OV-3 ovarian = system: SK-OV-3 ovarian
SK-MEL-2 melanoma = system: SK-MEL-2 melanoma
SF-268 CNS = system: SF-268 CNS
NCI/ADR-RES ovarian = system: NCI/ADR-RES ovarian
BT-549 breast = system: BT-549 breast
SR leukemia = system: SR leukemia
SNB-19 CNS = system: SNB-19 CNS
UACC-62 melanoma = system: UACC-62 melanoma
A498 renal = system: A498 renal
SN12C renal = system: SN12C renal
DU-145 prostate = system: DU-145 prostate
SW-620 colon = system: SW-620 colon
UACC-257 melanoma = system: UACC-257 melanoma
CCRF-CEM leukemia = system: CCRF-CEM leukemia
SK-MEL-5 melanoma = system: SK-MEL-5 melanoma
OVCAR-8 ovarian = system: OVCAR-8 ovarian
NCI-H522 lung = system: NCI-H522 lung
KM12 colon = system: KM12 colon
HT29 colon = system: HT29 colon
MALME-3M melanoma = system: MALME-3M melanoma
HCC-2998 colon = system: HCC-2998 colon
RXF 393 renal = system: RXF 393 renal
HOP-62 NSCLC = system: HOP-62 NSCLC
T-47D breast = system: T-47D breast
HCT-116 colon = system: HCT-116 colon
SF-539 CNS = system: SF-539 CNS
PC-3 prostate = system: PC-3 prostate
OVCAR-3 ovarian = system: OVCAR-3 ovarian
U251 CNS = system: U251 CNS
HS 578T breast = system: HS 578T breast
NCI-H460 lung = system: NCI-H460 lung
CAKI-1 renal = system: CAKI-1 renal
A549 NSCLC = system: A549 NSCLC
ACHN renal = system: ACHN renal
OVCAR-4 ovarian = system: OVCAR-4 ovarian
UO-31 renal = system: UO-31 renal
M14 melanoma = system: M14 melanoma
IGROV1 ovarian = system: IGROV1 ovarian
EKVX NSCLC = system: EKVX NSCLC
OVCAR-5 ovarian = system: OVCAR-5 ovarian
SK-MEL-28 melanoma = system: SK-MEL-28 melanoma
COLO 205 colon = system: COLO 205 colon
LOX IMVI melanoma = system: LOX IMVI melanoma
MDA-MB-231 breast = system: MDA-MB-231 breast
HCT-15 colon = system: HCT-15 colon
SNB-75 CNS = system: SNB-75 CNS
RPMI-8226 leukemia = system: RPMI-8226 leukemia
NCI-H226 lung = system: NCI-H226 lung
MOLT-4 leukemia = system: MOLT-4 leukemia
TK-10 renal = system: TK-10 renal
786-0 renal = system: 786-0 renal
K-562 leukemia = system: K-562 leukemia
NCI-H23 lung = system: NCI-H23 lung
MCF7 breast = system: MCF7 breast
HL-60(TB) leukemia = system: HL-60(TB) leukemia

## C=C1C(=O)O[C@H]2[C@H]1CC/C(COC(=O)NCc1c[nH]c3ccc(Br)cc13)=C\CC[C@@]1(C)O[C@@H]21
HOP-92 NSCLC
  GI50: 1580 nM
  TGI: 3170 nM
MDA-MB-435
  GI50: 1120 nM
  TGI: 2550 nM
SF-295 CNS
  GI50: 1600 nM
  TGI: 3290 nM
SK-OV-3 ovarian
  GI50: 5870 nM
  TGI: 18500 nM
SK-MEL-2 melanoma
  GI50: 1350 nM
  TGI: 2810 nM
SF-268 CNS
  GI50: 1610 nM
  TGI: 3410 nM
NCI/ADR-RES ovarian
  GI50: 3040 nM
  TGI: 12400 nM
BT-549 breast
  GI50: 1290 nM
  TGI: 2920 nM
SR leukemia
  GI50: 296 nM
  TGI: 10100 nM
SNB-19 CNS
  GI50: 2750 nM
  TGI: 11300 nM
UACC-62 melanoma
  GI50: 1310 nM
  TGI: 2640 nM
A498 renal
  GI50: 1670 nM
  TGI: 3250 nM
SN12C renal
  GI50: 1360 nM
  TGI: 3120 nM
DU-145 prostate
  GI50: 1110 nM
  TGI: 2580 nM
SW-620 colon
  GI50: 611 nM
  TGI: 2300 nM
UACC-257 melanoma
  GI50: 1440 nM
  TGI: 2900 nM
CCRF-CEM leukemia
  GI50: 315 nM
  TGI: 1580 nM
SK-MEL-5 melanoma
  GI50: 1630 nM
  TGI: 2990 nM
OVCAR-8 ovarian
  GI50: 1350 nM
  TGI: 3480 nM
NCI-H522 lung
  GI50: 589 nM
  TGI: 2050 nM
KM12 colon
  GI50: 2230 nM
  TGI: 5070 nM
HT29 colon
  GI50: 794 nM
  TGI: 2260 nM
MALME-3M melanoma
  GI50: 1840 nM
  TGI: 3530 nM
HCC-2998 colon
  GI50: 1790 nM
  TGI: 3300 nM
RXF 393 renal
  GI50: 1250 nM
  TGI: 2590 nM
HOP-62 NSCLC
  GI50: 1520 nM
  TGI: 3350 nM
T-47D breast
  GI50: 1240 nM
  TGI: 2990 nM
HCT-116 colon
  GI50: 619 nM
  TGI: 1980 nM
SF-539 CNS
  GI50: 1660 nM
  TGI: 3130 nM
PC-3 prostate
  GI50: 1510 nM
  TGI: 3120 nM
OVCAR-3 ovarian
  GI50: 1010 nM
  TGI: 2290 nM
U251 CNS
  GI50: 1630 nM
  TGI: 3020 nM
HS 578T breast
  GI50: 2170 nM
  TGI: 7090 nM
NCI-H460 lung
  GI50: 1880 nM
  TGI: 4040 nM
CAKI-1 renal
  GI50: 1510 nM
  TGI: 2940 nM
A549 NSCLC
  GI50: 1750 nM
  TGI: 3650 nM
ACHN renal
  GI50: 1280 nM
  TGI: 2580 nM
OVCAR-4 ovarian
  GI50: 1450 nM
  TGI: 3350 nM
UO-31 renal
  GI50: 1380 nM
  TGI: 2680 nM
M14 melanoma
  GI50: 1350 nM
  TGI: 3070 nM
IGROV1 ovarian
  GI50: 1450 nM
  TGI: 2970 nM
EKVX NSCLC
  GI50: 1580 nM
  TGI: 3050 nM
OVCAR-5 ovarian
  GI50: 1760 nM
  TGI: 3780 nM
SK-MEL-28 melanoma
  GI50: 1720 nM
  TGI: 3370 nM
COLO 205 colon
  GI50: 884 nM
  TGI: 2320 nM
LOX IMVI melanoma
  GI50: 701 nM
  TGI: 2050 nM
MDA-MB-231 breast
  GI50: 1490 nM
  TGI: 3070 nM
HCT-15 colon
  GI50: 461 nM
  TGI: 1870 nM
SNB-75 CNS
  GI50: 1260 nM
  TGI: 2530 nM
RPMI-8226 leukemia
  GI50: 752 nM
  TGI: 3570 nM
NCI-H226 lung
  GI50: 1550 nM
  TGI: 3070 nM
MOLT-4 leukemia
  GI50: 1700 nM
  TGI: 5510 nM
TK-10 renal
  GI50: 1550 nM
  TGI: 2930 nM
786-0 renal
  GI50: 841 nM
  TGI: 2360 nM
K-562 leukemia
  GI50: 292 nM
  TGI: 1530 nM
NCI-H23 lung
  GI50: 1660 nM
  TGI: 3350 nM

## c1ccc(-c2cn3nc(N4CCOCC4)sc3n2)cc1
MDA-MB-435
  TGI: > 100000 nM
SF-295 CNS
  TGI: > 100000 nM
SK-OV-3 ovarian
  TGI: > 100000 nM
SK-MEL-2 melanoma
  TGI: > 100000 nM
MCF7 breast
  TGI: > 100000 nM
SF-268 CNS
  TGI: > 100000 nM
NCI/ADR-RES ovarian
  TGI: > 100000 nM
HL-60(TB) leukemia
  TGI: > 100000 nM
BT-549 breast
  TGI: > 100000 nM
SNB-19 CNS
  TGI: > 100000 nM
UACC-62 melanoma
  TGI: > 100000 nM
SN12C renal
  TGI: > 100000 nM
DU-145 prostate
  TGI: > 100000 nM
SW-620 colon
  TGI: > 100000 nM
UACC-257 melanoma
  TGI: > 100000 nM
CCRF-CEM leukemia
  TGI: > 100000 nM
SK-MEL-5 melanoma
  TGI: > 100000 nM
OVCAR-8 ovarian
  TGI: > 100000 nM
NCI-H522 lung
  TGI: > 100000 nM
KM12 colon
  TGI: > 100000 nM
HT29 colon
  TGI: > 100000 nM
MALME-3M melanoma
  TGI: > 100000 nM
HCC-2998 colon
  TGI: > 100000 nM
RXF 393 renal
  TGI: > 100000 nM
HOP-62 NSCLC
  TGI: > 100000 nM
T-47D breast
  TGI: > 100000 nM
HCT-116 colon
  TGI: > 100000 nM
PC-3 prostate
  TGI: > 100000 nM
OVCAR-3 ovarian
  TGI: > 100000 nM
U251 CNS
  TGI: > 100000 nM
HS 578T breast
  TGI: > 100000 nM
NCI-H460 lung
  TGI: > 100000 nM
CAKI-1 renal
  TGI: > 100000 nM
A549 NSCLC
  TGI: > 100000 nM
ACHN renal
  TGI: > 100000 nM
OVCAR-4 ovarian
  TGI: > 100000 nM
UO-31 renal
  TGI: > 100000 nM
M14 melanoma
  TGI: > 100000 nM
IGROV1 ovarian
  TGI: > 100000 nM
EKVX NSCLC
  TGI: > 100000 nM
OVCAR-5 ovarian
  TGI: > 100000 nM
SK-MEL-28 melanoma
  TGI: > 100000 nM
COLO 205 colon
  TGI: > 100000 nM
MDA-MB-231 breast
  TGI: > 100000 nM
HCT-15 colon
  TGI: > 100000 nM
SNB-75 CNS
  TGI: > 100000 nM
RPMI-8226 leukemia
  TGI: > 100000 nM
NCI-H226 lung
  TGI: > 100000 nM
MOLT-4 leukemia
  TGI: > 100000 nM
TK-10 renal
  TGI: > 100000 nM
786-0 renal
  TGI: > 100000 nM
K-562 leukemia
  TGI: > 100000 nM
NCI-H23 lung
  TGI: > 100000 nM
